How the values were obtained:
[1] = test system: human glioblastoma cells U-251MG; test: near-infrared fluorescence imaging after topical administration into tumor, human glioblastoma subcutaneous transplant model; assay type: in vivo; conditions: U-251MG glioblastoma, SCID mouse, 0.02 to 0.1 mL of 1 mg/mL, 1 hour after administration
Method: A human cancer cell transplant model mouse was created as follows: • (Head and neck/tongue cancer) To immunodeficient SCID mice (weight: 17 g to 23 g), about 10^6 human tongue cancer cells CAL27 (purchased from American Type Culture Collection: ATCC) were subcutaneously administered, and the resultant mice were grown for 49 days to create tumor models. • (Brain cancer/neuroblastoma) To immunodeficient SCID mice (weight: 17 g to 23 g), about 10^6 human neuroblastoma cells SH-SY5Y (purchased from ATCC) were subcutaneously administered, and the resultant mice were grown for 90 days to create tumor models. • (Brain cancer/glioblastoma) To immunodeficient SCID mice (weight: 17 g to 23 g), about 10^6 human glioblastoma cells U-251MG (obtained from European Collection of Authenticated Cell Cultures) were subcutaneously administered, and the resultant mice were grown for 90 days to create tumor models.
Subsequently, to the tumor of each of the mouse models, 0.02 to 0.1 mL of a saline containing the compound III (concentration of the compound III: 1 mg/mL) was topically administered, and fluorescence imaging was conducted transdermally with a near-infrared fluorescence camera (Fluobeam, manufactured by Fluoptics) (excitation wavelength: 780 nm, detection wavelength: 800 nm or more).

mouse tumor cell 4T1 = test: near-infrared fluorescence imaging after administration into tumor, 4T1 breast cancer model; assay type: in vivo
Source text: (§1) A syngeneic tumor transplanted mouse model was created as follows referring to “Gan-Shikkan Model no Sakusei to Riyo (Cancer-Creation and Use of Disease Model)” (Takuro Nakamura, LIC, 2012). • (Breast Cancer) A tumor model was created by breeding a normal Balb/c mouse (weight: about 20 g to 30 g) for 14 days with mouse tumor cell 4T1 subcutaneously administered thereto. • (Colorectal Cancer) A tumor model was created by breeding a normal Balb/c mouse (weight: about 20 g to 30 g) for 14 days with CT26 (colorectal cancer cell) subcutaneously administered thereto. • (Skin Cancer) A tumor model was created by breeding a C57BL/6 mouse (weight: about 15 g to 20 g) for 14 days with B16F1 (skin cancer cell) subcutaneously administered thereto.
(§2) Subsequently, to the tumor of each of the model mice, 0.02 to 0.05 mL of a saline containing the compound III or ICG (concentration of the compound III or ICG: 1 mg/mL) was administered, and fluorescence imaging was performed transdermally with a near-infrared fluorescence camera (Fluobeam, manufactured by Fluoptics, http://www.solve-net.com/info/wp-content/uploads/downloads/2013/12/Fluobeam.pdf) (excitation wavelength: 780 nm, detection wavelength: 800 nm or more).

RenCa cell [2] = test: near-infrared fluorescence imaging of lung, lung cancer-bearing mouse (RenCa, tail vein inoculation); assay type: in vivo; conditions: tail vein 120 nmol/kg; after 10 minutes; excised lung
Method: Metastatic spontaneous renal cell carcinoma line from BALB/c mouse, RenCa cell (1×10^6 cells, purchased from CLS Cell Lines Service GmbH, Eppelheim, Germany) was prepared in RPMI-1640 medium (fetal bovine serum free, FUJIFILM Wako Pure Chemical Corporation), the resultant was inoculated in a mouse (BALB/cCrSlc, SPF, female, 7 weeks old) by tail vein administration under anesthesia by subcutaneous administration of ketamine (75 mg/kg) and medetomidine (1 mg/kg), and the resultant mouse was bred for 18 days to cause lung cancer therein. The mouse was anesthetized by subcutaneous administration of ketamine (75 mg/kg) and medetomidine (1 mg/kg), and the compound III (120 nmol/kg weight) was administered through the tail vein. After 10 minutes, the lung was excised to perform near-infrared fluorescence imaging with a near-infrared fluorescence imaging device (pde-neo, manufactured by Hamamatsu Photonics K.K.).

RenCa cell [3] = test: near-infrared fluorescence imaging of liver, liver cancer-bearing mouse (RenCa, intravenous inoculation); assay type: in vivo; conditions: tail vein 120 nmol/kg, after 10 minutes, laparotomy
Method: Metastatic spontaneous renal cell carcinoma line from BALB/c mouse, RenCa cell (1×10^6 cells, purchased from CLS Cell Lines Service GmbH, Eppelheim, Germany) was intravenously inoculated into a mouse (BALB/cCrSlc, SPF, female, 7 weeks old) under anesthesia by subcutaneous administration of ketamine (75 mg/kg) and medetomidine (1 mg/kg), and the resultant mouse was bred for 18 days to cause liver cancer therein. The mouse was anesthetized by subcutaneous administration of ketamine (75 mg/kg) and medetomidine (1 mg/kg), and the compound III (120 nmol/kg weight) was administered through the tail vein. After 10 minutes, laparotomy was conducted to perform near-infrared fluorescence imaging with a near-infrared fluorescence imaging device (pde-neo, manufactured by Hamamatsu Photonics K.K.). Near-infrared fluorescence of the compound III from a liver normal tissue was strong, light emission of the compound III from a liver cancer site (framed site in the right image) was very weak, and thus, the normal site and the cancer site could be distinguished from each other depending on the light emission (FIG. 19).

B16F1 (skin cancer cell) = test: near-infrared fluorescence imaging after administration into tumor, B16F1 skin cancer model; assay type: in vivo, mouse; conditions: 0.02 to 0.05 mL of 1 mg/mL saline, transdermal imaging
Source text: as §1, §2

[4] = test system: CT26 (colorectal cancer cell); test: near-infrared fluorescence imaging after administration into tumor, CT26 colorectal cancer model; assay type: in vivo, mouse; conditions: 0.02 to 0.05 mL of 1 mg/mL saline, transdermal imaging
Source text: as §1, §2

[5] = test system: Human esophageal cancer cell KYSE850; test: near-infrared fluorescence observation, human esophageal cancer subcutaneous transplant mouse model; assay type: in vivo; conditions: nude mouse, tail vein 120 nmol/kg, 30 seconds after administration
Source text: Human esophageal cancer cell KYSE850 was subcutaneously transplanted into the neck of a nude mouse (BALB/cSlc-nu, SPF, male, 5 weeks old), and the resultant mouse was bred for 18 days to create a mouse having esophageal cancer grown therein. The human esophageal cancer cell KYSE850 was purchased from JCRB cell bank of National Institutes of Biomedical Innovation, Health and Nutrition (Registration Number: JCRB1422, establisher: Graduate School of Pharmaceutical Sciences, Kyoto University, Department of Nanobio Drug Discovery, Yutaka Shimada).
The near-infrared fluorescence from a cancer tissue (circled site) was strong, and that from a normal tissue was weak (FIG. 25). It is noted that fluorescence in an elliptical frame corresponds to near-infrared fluorescence from the right and left kidneys.

COC1=C(/C=C/C2=[N+](CCC(=O)NCCCO[C@H]3[C@H]4O[C@H]5[C@H](O)[C@@H](O)[C@@H](O[C@H]6[C@H](O)[C@@H](O)[C@@H](O[C@H]7[C@H](O)[C@@H](O)[C@@H](O[C@H]8[C@H](O)[C@@H](O)[C@@H](O[C@H]9[C@H](O)[C@@H](O)[C@@H](O[C@H]%10[C@H](O)[C@@H](O)[C@@H](O[C@@H]([C@@H]3O)[C@@H](CO)O4)O[C@@H]%10CO)O[C@@H]9CO)O[C@@H]8CO)O[C@@H]7CO)O[C@@H]6CO)O[C@@H]5CO)c3ccc4ccccc4c3C2(C)C)CCC/C1=C\C=C1\N(CCC(=O)NCCCO[C@H]2[C@H]3O[C@H]4[C@H](O)[C@@H](O)[C@@H](O[C@H]5[C@H](O)[C@@H](O)[C@@H](O[C@H]6[C@H](O)[C@@H](O)[C@@H](O[C@H]7[C@H](O)[C@@H](O)[C@@H](O[C@H]8[C@H](O)[C@@H](O)[C@@H](O[C@H]9[C@H](O)[C@@H](O)[C@@H](O[C@@H]([C@@H]2O)[C@@H](CO)O3)O[C@@H]9CO)O[C@@H]8CO)O[C@@H]7CO)O[C@@H]6CO)O[C@@H]5CO)O[C@@H]4CO)c2ccc3ccccc3c2C1(C)C.[Cl-] [compound III, 3-(3-{[3-(cyclomaltoheptaose-21-O-yl)propyl]amino}-3-oxopropyl)-2-{(1E)-2-[(3E)-3-{(2E)-2-[3-(3-{[3-(cyclomaltoheptaose-21-O-yl)propyl]amino}-3-oxopropyl)-1,1-dimethyl-1,3-dihydro-2H-benzo[e]indol-2-ylidene]ethylidene}-2-methoxycyclohexa-1-en-1-yl]ethene-1-yl}-1,1-dimethyl-1H-benzo[e]indol-3-ium chloride]
retention inside the tumor (fluorescence imaging) [1]: retained inside the tumor
retention in tumor (fluorescence imaging) (mouse tumor cell 4T1; 4T1 breast cancer model, 0.02 to 0.05 mL of 1 mg/mL saline, transdermal imaging): retained in the tumor
drawing of tumor outline / exudation to surrounding tissues (mouse tumor cell 4T1; 4T1 tumor, 1 mg/mL saline, fluorescence imaging, incl. during tumor excision operation): did not exude to surrounding tissues but the outline of the tumor was drawn
intensity of near-infrared fluorescence in lung cancer site (RenCa cell [2]): low
light emission from liver cancer site (RenCa cell [3]): very weak
near-infrared fluorescence from liver normal tissue (RenCa cell [3]): strong
retention in tumor (fluorescence imaging) (B16F1 (skin cancer cell)): retained in the tumor
retention in tumor (fluorescence imaging) [4]: retained in the tumor
near-infrared fluorescence from esophageal cancer tissue [5]: strong
near-infrared fluorescence from normal tissue [5]: weak

From patent publication US20240181087A1, “COMPOSITION FOR CONTRAST IMAGING OF CANCER” (ASTELLAS PHARMA INC., priority 2021, published 2024)
